Results on 11 compounds are retold here after patent US10544130B2, “Metallo-beta-lactamase inhibitors” (priority 2015, dated 2020).

The subject of this data set is Pseudomonas aeruginosa PAO1 MB9798 (efflux+, IMP-1). As to conditions: ratio MITC95 PA 9798/MITC95 PA 9799; imipenem at 2 μg/mL. The source says:
The strain background was Pseudomonas aeruginosa PAO1.
The strain set was then used as a pair to determine the effect of metallo-β-lactamase inhibitors of Formula I on the MIC of imipenem and/or ceftazidime. A fixed concentration of antibiotic was included in standard microbroth MIC tests, usually at the CLSI (Clinical and Laboratory Standards Institute) breakpoint concentration. A fixed amount of a class A/C beta-lactamase inhibitor was also included to inhibit the resident Pseudomonas AmpC enzyme. A serial titration of the metallo-β-lactamase inhibitor was included and the concentration of metallo-β-lactamase inhibitor which restores susceptibility of the strain to the included antibiotic was recorded. That concentration of metallo-β-lactamase inhibitor was then compared between the two strains to determine the fold difference between the efflux + (MB9798) and efflux − (MB9799) strains. This was taken as an indication of the extent to which the MBLi is subject to efflux.

SMILES strings stand for the structures.

As to `NCCNS(=O)(=O)c1ccc(-c2cc(F)cc3[nH]c(N)nc23)c(-c2nnn[nH]2)c1S(N)(=O)=O` [Example 180, 4-(2-amino-6-fluoro-1H-benzo[d]imidazol-4-yl)-N^1-(2-aminoethyl)-3-(1H-tetrazol-5-yl)benzene-1,2-disulfonamide], the Efflux ratio was 0.50.

In the case of `NCCNS(=O)(=O)c1ccc(-c2cccc3sc(N)nc23)c(-c2nn[nH]n2)c1S(N)(=O)=O` [Example 145, 4-(2-aminobenzo[d]thiazol-4-yl)-N1-(2-aminoethyl)-3-(2H-tetrazol-5-yl)benzene-1,2-disulfonamide], the Efflux ratio turned out to be 0.50.

In the case of `Nc1nc2c(-c3ccc(S(=O)(=O)N[C@@H]4CN[C@@H](CO)C4)c(S(N)(=O)=O)c3-c3nnn[nH]3)cccc2[nH]1` [Example 174, 4-(2-amino-1H-benzo[d]imidazol-4-yl)-N^1-((3S,5R)-5-(hydroxymethyl)pyrrolidin-3-yl)-3-(1H-tetrazol-5-yl)benzene-1,2-disulfonamide], the Efflux ratio is 1.00.

Consider `NC(=O)[C@@H](N)CNS(=O)(=O)c1ccc(-c2cccc3[nH]c(N)nc23)c(-c2nn[nH]n2)c1S(N)(=O)=O` [Example 189, (2S)-2-amino-3-(4-(2-amino-1H-benzo[d]imidazol-4-yl)-2-sulfamoyl-3-(2H-tetrazol-5-yl)phenylsulfonamido)propanamide], for which the Efflux ratio is recorded as 0.50.

Consider `NCCCNS(=O)(=O)c1ccc(-c2cccc3[nH]cnc23)c(-c2nn[nH]n2)c1S(N)(=O)=O` [Example 198, N^1-(3-aminopropyl)-4-(1H-benzo[d]imidazol-4-yl)-3-(2H-tetrazol-5-yl)benzene-1,2-disulfonamide], for which the Efflux ratio was 1.00.

Turning to `Nc1nc2c(-c3ccc(S(=O)(=O)NCC4(N)CCOCC4)c(S(N)(=O)=O)c3-c3nnn[nH]3)cccc2s1.O=CO` [Example 115, 4-((4-(2-aminobenzo[d]thiazol-4-yl)-2-sulfamoyl-3-(1H-tetrazol-5-yl)phenylsulfonamido)methyl)tetrahydro-2H-pyran-4-aminium formate], the Efflux ratio was found to be 1.00.

In the case of `Nc1nc2c(-c3ccc(S(=O)(=O)NC4CCS(=O)(=O)CC4)c(S(N)(=O)=O)c3-c3nnn[nH]3)cccc2s1` [Example 14, 4-(2-amino-1,3-benzothiazol-4-yl)-N1-(1,1-dioxidotetrahydro-2H-thiopyran-4-yl)-3-(1H-tetrazol-5-yl)benzene-1,2-disulfonamide], the Efflux ratio is on record as 1.00.

As for `Nc1nc2c(-c3ccc(S(=O)(=O)NC4CCc5nccn5C4)c(S(N)(=O)=O)c3-c3nnn[nH]3)cccc2s1` (centres unmarked) [Example 35, 4-(2-amino-1,3-benzothiazol-4-yl)-N1-(5,6,7,8-tetrahydroimidazo[1,2-a]pyridin-6-yl)-3-(1H-tetrazol-5-yl)benzene-1,2-disulfonamide], the Efflux ratio came to 2.00.

Take `Nc1nc2c(-c3ccc(S(=O)(=O)N[C@@H]4CCNC4)c(S(N)(=O)=O)c3-c3nnn[nH]3)cccc2s1` [Example 63, 4-(2-amino-1,3-benzothiazol-4-yl)-N1-[(3R)-pyrrolidin-3-yl]-3-(1H-tetrazol-5-yl)benzene-1,2-disulfonamide]: the Efflux ratio came out at 0.50.

As for `Nc1nc2c(-c3ccc(S(=O)(=O)N[C@H]4CNC[C@H]4N)c(S(N)(=O)=O)c3-c3nn[nH]n3)cccc2[nH]1` [Example 241, 4-(2-amino-1H-benzo[d]imidazol-4-yl)-N^1-((3S,4R)-4-aminopyrrolidin-3-yl)-3-(2H-tetrazol-5-yl)benzene-1,2-disulfonamide], the Efflux ratio is on record as 0.83.

In the case of `C[N+]1(C)CC[C@H](NS(=O)(=O)c2ccc(-c3cccc4[nH]c(N)nc34)c(-c3nn[n-]n3)c2S(N)(=O)=O)C1` [Example 166, (S)-5-(6-(2-amino-1H-benzo[d]imidazol-4-yl)-3-(N-(1,1-dimethylpyrrolidin-1-ium-3-yl)sulfamoyl)-2-sulfamoylphenyl)tetrazol-2-ide], the Efflux ratio amounted to 1.00.
